According to US8835644B2, “Broad spectrum benzothiophene-nitrothiazolide and other antimicrobials” (University of Virginia Patent Foundation, priority 2009, dated 2014):
In brackets after ≈: the same amount, converted by molar mass. Several values for one entry are separate records, joined by “and”; a condition that tells them apart may be missing. Equal values may be shown once. Read-outs that look alike come from different tables or passages of the source.

Legend:
[1] = test system: EAEC JM221 (Type 1 fimbriae); assay: Hemagglutination of guinea pig erythrocytes, EAEC JM221; assay type: cell-based, Escherichia coli; conditions: EAEC JM221 grown statically in LB 48 h with 20 μg/ml NTZ; further: key: +++ = strong hemagglutination reaction; + weak; − no hemagglutination
Experimental: (§1) HA assays were performed in 96-well microplates as described in (1). Bacteria grown over night without shaking (MinA-G medium with and without 25 μg/ml NTZ) were suspended in PBS and diluted to OD660 of […] was mixed with an equal volume of 3% (vol/vol) sheep erythrocyte suspension containing 1% mannose, except when type I fimbriae producing strains were assayed. In the latter, bacteria were grown statically in LB medium (with and without NTZ) for 48 h and HA was determined with guinea pig erythrocytes. HA reactions were incubated at 4° C. for […] HA was determined visually against controls receiving no NTZ. All assays were prepared in triplicate and repeated twice.

[2] = reference (9); cited from earlier work
E. coli = assay: MIC testing by broth dilution, E. coli plank; assay type: cell-based, Escherichia coli
How it was run: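 Values are broth-dilution MICs, defined as the well showing no growth on visual reading after 24 h; the tested range was 32 to 0.06 μg/ml, in organism-specific media (LB, Trypticase Soy, Brain Heart Infusion). The C. difficile entries come instead from anaerobic Kirby-Bauer disk zones, normalised to NTZ.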

[3] = test system: AafA fimbriae of EAEC 042; assay: Fimbrial filaments by SDS-PAGE, immunoblot, immunofluorescence; assay type: cell-based, Escherichia coli; conditions: EAEC 042, MinA-G, 20 μg/ml
Experimental: A simplified procedure for mechanical removal of fimbriae was modified from Dodd and Eisenstein (5). […] The cultures were spun down at 4,000 rpm for 5 min at 25° C. Pellets were resuspended in 2 ml PBS, vortexed 2× for 30 sec to shear off flagella and fimbriae, and then centrifuged at 8,000 rpm for 10 min to remove whole cells. The supernatants, containing fimbrial filaments, were transferred to new tubes, and 8 ml of acetone were added to precipitate proteins. Solutions were spun down again at 8,000 rpm for 10 min, and the acetone was decanted. The remaining protein pellets were resuspended in 50 μl PBS and 100 μl 3× loading buffer containing 2-mercaptoethanol.
To analyze the proteins contained in the biofilm, the flasks were rinsed with water to remove residual bacteria, and the biofilms were dissolved in 1-2 ml 1% SDS. 50 μl of each solution was combined with 100 μl 3× loading buffer in PCR tubes. All five samples were run in a NuPAGE 4-12% Bis-Tris gel at 120 V and stained with Coomassie brilliant blue or used directly for transfer of proteins to nitrocellulose.
Ponceau red stained nitrocellulose was used to visualize transferred proteins and immunoblotting protocols used in this study as described (14). […] The slides were washed 3× in PBS, dried and visualized with a Zeiss epi-fluorescence microscope.

Solubility in water = assay type: physicochemical; conditions: water
[4] = test system: EAEC JM221 (AAF/I fimbriae); assay: Hemagglutination of sheep erythrocytes, EAEC JM221; assay type: cell-based, Escherichia coli; conditions: EAEC JM221 grown in MinA-G with 20 μg/ml NTZ; further: key: +++ = strong hemagglutination reaction; + weak; − no hemagglutination
Experimental: as §1, with “([…])” for “(MinA-G medium with and without 25 μg/ml NTZ)”

[5] = test system: S. epidermidis strain 9142; assay: Biofilm determination, crystal violet, S. epidermidis; assay type: cell-based, Staphylococcus epidermidis
Experimental: Staphylococcal strains were cultured overnight in TSB at 37° C. with shaking, diluted in fresh medium to an OD600 of 0.01 and 200 W was dispensed into sterile flat bottom polystyrene 96 well microtiter plates (Costar 3596, Corning Inc.). […] Each compound and dilution was tested in triplicate. The plates were incubated overnight at 37° C. in a humidified incubator, without shaking and both growth and biofilm accumulation were determined at 16 h.
Following recording of turbidities, the culture medium was aspirated and the wells were washed three times with distilled water, blotted on paper towels, and fixed with 75% ethanol for 10 minutes.
To visualize biofilm material, 0.5% crystal violet was added to each well and after 5 minutes was removed and the wells washed three times with distilled water. Plates were read using a microplate reader at a wavelength of 570 nm. The dye was then extracted by adding 200 W of 95% ethanol, and the absorbance was read again at 570 nm. All assays were performed in triplicate and the mean and standard deviation determined. Generally, the ethanol-solubilized crystal violet was more reliable and these determinations are reported throughout.

In the case of `CC(=O)Oc1ccccc1C(=O)Nc1ncc([N+](=O)[O-])s1` [Nitazoxanide, 2-(acetyloxy)-N-(5-nitro-2-thiazolyl)benzamide, reference compound], the “HA (guinea pig erythrocytes), bacterial OD660 0.5” value [1] is reported as “−”, the “HA (guinea pig erythrocytes), bacterial OD660 1.0” value [1] is reported as “−” and the “HA (guinea pig erythrocytes), bacterial OD660 1.5” value [1] is reported as “+”. For the same molecule, the pKa [2] was 6.2, the MIC (E. coli; Escherichia coli, broth dilution, LB medium, 24 h, read-out: MIC (μM) E. coli Plank) was 104 µM (≈ 32 µg/mL) and the MIC (E. coli; Escherichia coli, planktonic, Furan analogues table, read-out: MIC E. coli Plank) was 104 µM (≈ 32 µg/mL). The MIC (E. coli; planktonic, 2-amino-3,5-dinitrothiophene analogues table, read-out: MIC E. coli Plank) was 104.1 µM (≈ 32 µg/mL), the MIC (E. coli; planktonic, Thiophene analogues table, read-out: MIC E. coli Plank) was 104.1 µM (≈ 32 µg/mL) and the “Fimbrial filaments from vortexed whole cells” value [3] was “nearly absent”. For the same molecule, the solubility (Solubility in water) was under 0.032 mg/mL, the “HA (sheep erythrocytes), bacterial OD660 0.5” value [4] was “−” and the “HA (sheep erythrocytes), bacterial OD660 1.0” value [4] was “−”. For the same molecule, the IC50 biofilm production ([5]; S. epidermidis strain 9142, crystal violet, listed as NTZ) was 4 mg/L (≈ 13 µM), the IC50 ([5]; Staphylococcus epidermidis, 9142, S. epidermidis strain 9142, crystal violet, read-out: IC50 biofilm production) was 2.5 µg/mL and ~8 µM and the IC50 ([5]; Staphylococcus epidermidis, 9142, clinical S. epidermidis isolates and strain 5179-R1, read-out: IC50 biofilm formation, all strains tested) was 2.5 to 5 mg/L (≈ 8.14 to 16.3 µM). The “Biofilm accumulation on the bottom of flasks” value ([5]; static (microaerobic) growth, 15 μg/ml) was “completely ablated”.
